Data: ChEMBL document CHEMBL4196232, “A Series of Indole-Thiazole Derivatives Act as GPER Agonists and Inhibit Breast Cancer Cell Growth” (ACS Med Chem Lett, 2018)
The source made the active and inactive calls. No cut-off for these calls is given here.

Experiments:
[1] = molecular target: T1, G-protein coupled estrogen receptor 1 (Homo sapiens, UniProt Q99527); test: Antagonist activity at GPER (unknown origin) expressed in human HL60 cells assessed as inhibition of G-1-induced cAMP accumulation preincubated for 20 mins followed by G-1 addition measured after 10 mins by HTRF assay; format: functional, cell-based
[2] = molecular target: T1, G-protein coupled estrogen receptor 1; test: Agonist activity at GPER (unknown origin) expressed in human HL60 cells assessed as increase in cAMP accumulation in presence of IBMX after 15 mins by HTRF assay; format: functional, cell-based
SK-BR-3 [3] = test: Cytotoxicity against human SKBR3 cells assessed as decrease in cell viability at 1 uM after 72 hrs in presence of GPER agonist E2 by MTS assay; format: functional, cell-based
[4] = molecular target: T2, Estrogen receptor (Homo sapiens) (UniProt P03372); test: Displacement of fluoromone from recombinant human full length untagged estrogen receptor alpha expressed in insect cells at 1 uM after 2 hrs by fluorescence polarization assay
T2 sequence (whole entry): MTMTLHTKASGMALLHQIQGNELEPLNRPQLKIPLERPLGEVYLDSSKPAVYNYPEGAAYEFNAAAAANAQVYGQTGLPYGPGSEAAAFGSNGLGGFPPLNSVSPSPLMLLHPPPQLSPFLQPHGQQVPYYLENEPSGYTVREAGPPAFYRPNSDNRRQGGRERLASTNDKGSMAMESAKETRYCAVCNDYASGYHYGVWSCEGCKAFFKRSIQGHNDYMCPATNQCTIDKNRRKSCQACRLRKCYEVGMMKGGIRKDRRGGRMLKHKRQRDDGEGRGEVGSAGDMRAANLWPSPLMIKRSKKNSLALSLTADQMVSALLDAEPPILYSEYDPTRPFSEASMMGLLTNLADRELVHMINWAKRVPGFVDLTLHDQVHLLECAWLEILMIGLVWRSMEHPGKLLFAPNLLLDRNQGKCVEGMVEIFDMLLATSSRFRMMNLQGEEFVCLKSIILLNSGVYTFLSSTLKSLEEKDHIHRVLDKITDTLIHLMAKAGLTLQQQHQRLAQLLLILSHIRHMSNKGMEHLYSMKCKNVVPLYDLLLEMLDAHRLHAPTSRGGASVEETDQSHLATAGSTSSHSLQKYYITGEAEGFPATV

[5] = molecular target: Estrogen receptor beta (Homo sapiens) (UniProt Q92731); test: Displacement of fluoromone from recombinant human full length untagged estrogen receptor beta expressed in insect cells at 1 uM after 2 hrs by fluorescence polarization assay
SK-BR-3 [6] = test: Cytotoxicity against human SKBR3 cells assessed as decrease in cell viability at 1 uM after 72 hrs in absence of GPER agonist E2 by MTS assay; format: functional, cell-based
MDA-MB-231 [7] = test: Cytotoxicity against human MDA-MB-231 cells assessed as decrease in cell viability at 1 uM after 72 hrs in presence of GPER agonist E2 by MTS assay; format: functional, cell-based
MDA-MB-231 [8] = test: Cytotoxicity against human MDA-MB-231 cells assessed as decrease in cell viability at 1 uM after 72 hrs in absence of GPER agonist E2 by MTS assay; format: functional, cell-based
HL-60 = test: Decrease in cAMP accumulation in human HL60 cells harboring GPER siRNA at 100 nM after 48 hrs by HTRF assay; format: functional, cell-based
[9] = molecular target: Estrogen receptor beta (Homo sapiens) (UniProt Q92731); test: Displacement of fluoromone from recombinant human full length untagged estrogen receptor beta expressed in insect cells after 2 hrs by fluorescence polarization assay
MCF7 = test: Cytotoxicity against human MCF7 cells assessed as decrease in cell viability at 1 uM after 72 hrs in presence of GPER agonist E2 by MTS assay; format: functional, cell-based
[10] = molecular target: T2, Estrogen receptor (Homo sapiens); test: Displacement of fluoromone from recombinant human full length untagged estrogen receptor alpha expressed in insect cells at
[11] = molecular target: Estrogen receptor beta (Homo sapiens) (UniProt Q92731); test: Displacement of fluoromone from recombinant human full length untagged estrogen receptor beta expressed in insect cells at

Chain of Estrogen receptor beta (Homo sapiens) (Q92731 whole entry): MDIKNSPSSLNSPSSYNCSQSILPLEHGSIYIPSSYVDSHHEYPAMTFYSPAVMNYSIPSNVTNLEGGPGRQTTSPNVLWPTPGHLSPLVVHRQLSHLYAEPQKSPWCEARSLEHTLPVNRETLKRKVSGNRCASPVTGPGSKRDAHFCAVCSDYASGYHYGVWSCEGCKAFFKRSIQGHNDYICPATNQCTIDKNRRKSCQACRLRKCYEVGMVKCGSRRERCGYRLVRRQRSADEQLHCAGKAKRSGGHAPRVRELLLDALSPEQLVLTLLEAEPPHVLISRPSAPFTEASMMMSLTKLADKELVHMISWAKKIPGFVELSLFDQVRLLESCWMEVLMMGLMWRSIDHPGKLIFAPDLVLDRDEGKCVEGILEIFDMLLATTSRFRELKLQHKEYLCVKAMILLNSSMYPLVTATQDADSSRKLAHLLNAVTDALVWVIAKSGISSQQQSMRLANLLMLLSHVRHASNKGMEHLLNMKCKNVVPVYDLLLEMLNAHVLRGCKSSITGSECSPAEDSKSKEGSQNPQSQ
T1 sequence (Q99527 whole entry): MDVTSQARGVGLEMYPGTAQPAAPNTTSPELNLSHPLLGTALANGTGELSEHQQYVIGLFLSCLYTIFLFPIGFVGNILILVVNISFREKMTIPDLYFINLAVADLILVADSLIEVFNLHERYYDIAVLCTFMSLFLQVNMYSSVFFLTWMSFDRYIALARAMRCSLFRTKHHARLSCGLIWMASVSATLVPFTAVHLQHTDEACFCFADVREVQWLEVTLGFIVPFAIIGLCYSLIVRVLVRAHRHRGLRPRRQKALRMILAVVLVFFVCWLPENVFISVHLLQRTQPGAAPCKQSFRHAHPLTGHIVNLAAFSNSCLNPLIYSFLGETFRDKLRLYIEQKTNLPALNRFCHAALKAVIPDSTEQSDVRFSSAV

SMILES	inhibition [1]	Activity (SK-BR-3 [3])	Activity (SK-BR-3 [6])	Activity (MDA-MB-231 [7])	Activity (MDA-MB-231 [8])	Activity (MCF7)	further results
COc1cc(OC)c2[nH]c(C(=O)Nc3ncc(Cc4ccccc4)s3)cc2c1	inactive						
O=C(Nc1ncc(Cc2ccc(F)cc2)s1)c1cc2cc(F)ccc2[nH]1	inactive	inactive	inactive	inactive	inactive		EC50 [2]: 20 nM; Activity [4]: Active; Activity [5]: Active
N#Cc1ccc(Cc2cnc(NC(=O)c3cc4cc(F)ccc4[nH]3)s2)cc1	inactive						
CC(=O)c1ccc2c(c1)[C@@H]1C=CC[C@@H]1[C@H](c1cc3c(cc1Br)OCO3)N2		Active	Active	Active	Active	Active	Activity (HL-60): inactive; Activity [9]: inactive
CC(C)c1csc(NC(=O)c2cc3c(Cl)cccc3[nH]2)n1	inactive						Activity [2]: inactive
O=C(Nc1nc2c(s1)CCC2)c1cc2cc(F)ccc2[nH]1	inactive						Activity [2]: inactive
O=C(Nc1ncc(Cc2ccc(F)cc2F)s1)c1[nH]c2ccccc2c1Cl		Active	Active	Active	Active	Active	EC50 [2]: 1620 nM; Activity (HL-60): inactive; Activity [9]: inactive; Activity [10]: inactive; Activity [11]: inactive
Brc1cc2c(cc1[C@@H]1Nc3ccccc3[C@@H]3C=CC[C@@H]31)OCO2				inactive	inactive	Active	
O=C(Nc1nc2c(s1)CCC2)c1cc2cc(Br)ccc2[nH]1	inactive						Activity [2]: inactive
CCc1nc(NC(=O)c2[nH]c3ccc(Br)cc3c2Cl)sc1C		inactive	inactive	inactive	inactive	Active	EC50 [2]: 480 nM; Activity [4]: Active; Activity [5]: Active; Activity [10]: inactive; Activity [11]: inactive
CSc1ncc(Cl)c(C(=O)Nc2ncc(Cc3ccc(F)cc3)s2)n1	inactive						
